We go through 10 molecules from PubChem BioAssay (NCI).

Some test systems named below: EKVX NSCLC; SNB-75 CNS; MALME-3M melanoma; A549 NSCLC; HT29 colon; ACHN renal; LOX IMVI melanoma; HOP-92 NSCLC; COLO 205 colon; SR leukemia.
What all share (experiment): inhibition of tumour cell growth, NCI panel, 48 h

Structures are written as SMILES.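 Where inhibition never reached the appropriate level, the endpoint shown equals the highest concentration tested. Otherwise, values were interpolated linearly from a five-concentration, 48-hour dose response in 96-well plates. GI50 marks 50% less growth. TGI denotes the concentration required for complete inhibition of growth.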

As for `Cn1c2ccccc2c2nnc(N/N=C/c3ccccn3)nc21`, the GI50 with EKVX NSCLC was 0.293 µM; with SNB-75 CNS it was 1.09 µM; in the assay on MALME-3M melanoma it was 0.334 µM; in the assay on A549 NSCLC, 0.461 µM; in the assay on HT29 colon, 0.529 µM; in the assay with ACHN renal, 0.35 µM. For the same molecule, the GI50 was 0.331 µM in the assay on LOX IMVI melanoma, 0.413 µM in the assay with HOP-92 NSCLC, 0.401 µM in the assay with COLO 205 colon and 0.23 µM in the assay with SR leukemia. The TGI in the assay on EKVX NSCLC was more than 32 µM; in the assay on SNB-75 CNS, 6.78 µM; with MALME-3M melanoma, 2.26 µM; with A549 NSCLC, more than 27.5 µM; in the assay with HT29 colon it was more than 100 µM; in the assay on ACHN renal, more than 21.4 µM. Besides, the TGI in the assay with LOX IMVI melanoma is 3.33 µM; in the assay on HOP-92 NSCLC, more than 59.1 µM; in the assay with COLO 205 colon, 18.5 µM; in the assay on SR leukemia it was more than 100 µM.
As for `Cc1nn2c(/C=C3/C(=O)Nc4ccc(Cl)cc43)c(-c3ccccc3)nc2s1`, the GI50 is 1.19 µM in the assay with SNB-75 CNS; 2.17 µM in the assay with MALME-3M melanoma; 2.25 µM in the assay on A549 NSCLC; 4.03 µM in the assay with HT29 colon; 2.96 µM in the assay on ACHN renal; 3.52 µM with LOX IMVI melanoma. For the same molecule, the GI50 with HOP-92 NSCLC is 0.58 µM; with COLO 205 colon, 3.9 µM; in the assay on SR leukemia, 3.5 µM. Moreover, the TGI with SNB-75 CNS amounted to 2.69 µM; with MALME-3M melanoma, 5.57 µM; in the assay with A549 NSCLC it was 5.51 µM; in the assay on HT29 colon, 13.9 µM; with ACHN renal, 14.4 µM; with LOX IMVI melanoma it was 14.8 µM. The TGI was 3.06 µM in the assay on HOP-92 NSCLC, 13.5 µM in the assay with COLO 205 colon and more than 100 µM in the assay on SR leukemia.
As to `COc1ccc(/C=C2\CNC/C(=C\c3ccc(OC)cc3)C2=O)cc1`, the TGI in the assay on EKVX NSCLC, in the assay with SNB-75 CNS, with MALME-3M melanoma, in the assay with A549 NSCLC, in the assay on HT29 colon and in the assay on ACHN renal was more than 100 µM each time. The TGI is 21.1 µM with LOX IMVI melanoma, more than 100 µM in the assay with HOP-92 NSCLC, more than 100 µM with COLO 205 colon and more than 100 µM in the assay on SR leukemia.
Consider `COc1ccc(C2=C(c3cn(C)c4ccccc34)C(=O)NC2=O)cc1OC`, for which the GI50 was 0.743 µM with SNB-75 CNS; more than 25 µM in the assay with MALME-3M melanoma; 8.44 µM in the assay on A549 NSCLC; 6.78 µM in the assay on HT29 colon; 6.35 µM with ACHN renal; 8.12 µM with LOX IMVI melanoma. For the same molecule, the GI50 with HOP-92 NSCLC was more than 12.4 µM; in the assay on COLO 205 colon it was 5.57 µM; in the assay with SR leukemia, 2.48 µM. Moreover, the TGI was 7.08 µM in the assay with SNB-75 CNS; more than 25 µM with MALME-3M melanoma; more than 25 µM with A549 NSCLC; more than 25 µM in the assay with HT29 colon; more than 25 µM in the assay on ACHN renal; more than 25 µM in the assay with LOX IMVI melanoma. Further, the TGI in the assay on HOP-92 NSCLC is more than 25 µM; with COLO 205 colon, more than 20.3 µM; in the assay on SR leukemia, more than 25 µM.
For `O=C(O)c1ccc([N+](=O)[O-])c2c(=O)c3ccccc3[nH]c12`, the TGI in the assay with SNB-75 CNS, with MALME-3M melanoma, in the assay with A549 NSCLC, with HT29 colon, in the assay with ACHN renal and in the assay with LOX IMVI melanoma was more than 100 µM in each case. The TGI with HOP-92 NSCLC, in the assay with COLO 205 colon and in the assay on SR leukemia was more than 100 µM each time.
On to `COc1ccc2nc(NC(=O)C(=O)CC(=O)c3ccc(Cl)cc3)sc2c1`, for which the TGI was more than 100 µM in the assay with EKVX NSCLC; 99.1 µM with SNB-75 CNS; more than 100 µM in the assay with MALME-3M melanoma; more than 100 µM in the assay with A549 NSCLC; more than 100 µM in the assay on HT29 colon; more than 100 µM in the assay with ACHN renal. Also, the TGI in the assay on HOP-92 NSCLC, in the assay on COLO 205 colon and in the assay on SR leukemia was more than 100 µM in each case.
As to `CC[O-].CC[O-].O=Nc1ccc2cc([O-])ccc2c1.O=Nc1ccc2cc([O-])ccc2c1.[Ti+4]`, the GI50 in the assay on EKVX NSCLC was 3.77 µM; in the assay on MALME-3M melanoma, 1.69 µM; in the assay with A549 NSCLC, 2.14 µM; in the assay with ACHN renal, 1.58 µM; with LOX IMVI melanoma it was 1.66 µM; in the assay with HOP-92 NSCLC, 1.96 µM. Moreover, the figures for the GI50 with COLO 205 colon and with SR leukemia were 2.2 µM and 0.0107 µM, respectively. In addition, the TGI in the assay with EKVX NSCLC is 11.8 µM; in the assay with MALME-3M melanoma, 3.06 µM; in the assay with A549 NSCLC it was 4.85 µM; in the assay with ACHN renal, 2.96 µM; in the assay on LOX IMVI melanoma it was 4.14 µM; with HOP-92 NSCLC, 6.1 µM. Besides, the TGI came out at 6.54 µM with COLO 205 colon and 2.95 µM with SR leukemia.
As for `CCc1nc2ccc(Cc3ccc(C(=O)NO)cc3)cc2c(=O)n1CCc1ccccc1`, the GI50 in the assay on EKVX NSCLC is 1.21 µM; in the assay on SNB-75 CNS it was 1.41 µM; with MALME-3M melanoma, 0.586 µM; in the assay with A549 NSCLC, 1.15 µM; with HT29 colon it was 0.919 µM; in the assay on LOX IMVI melanoma, 1.16 µM. Further, the GI50 in the assay with HOP-92 NSCLC is 1.36 µM; in the assay on COLO 205 colon, 0.871 µM; in the assay with SR leukemia, 0.784 µM. Moreover, the TGI with EKVX NSCLC amounted to 3.14 µM; in the assay with SNB-75 CNS it was 3.71 µM; with MALME-3M melanoma, 2.1 µM; with A549 NSCLC, 2.99 µM; in the assay on HT29 colon, 4.5 µM; with LOX IMVI melanoma, 2.5 µM. Further, the TGI in the assay on HOP-92 NSCLC came to 2.98 µM; with COLO 205 colon, 2.55 µM; with SR leukemia, 61 µM.
On to `CO/N=C1/NC(=O)/C(=C/c2ccc3ncccc3c2)S1`, for which the GI50 is 4.07 µM with SNB-75 CNS; 13.9 µM in the assay on MALME-3M melanoma; 10.7 µM in the assay on A549 NSCLC; 16.8 µM with HT29 colon; 10.6 µM with ACHN renal; 12.8 µM with LOX IMVI melanoma. Moreover, the GI50 is 4.48 µM in the assay with HOP-92 NSCLC, more than 25 µM in the assay on COLO 205 colon and 14.7 µM in the assay with SR leukemia. Further, the TGI in the assay with SNB-75 CNS, with MALME-3M melanoma, with A549 NSCLC, with HT29 colon, in the assay with ACHN renal and in the assay with LOX IMVI melanoma was more than 25 µM in each case. Further, the TGI in the assay with HOP-92 NSCLC, with COLO 205 colon and in the assay with SR leukemia was more than 25 µM each time.
As for `Cn1c2ccc([N+](=O)[O-])cc2c(=O)c2c(O)cc(O)cc21`, the TGI in the assay with EKVX NSCLC was more than 100 µM; in the assay with SNB-75 CNS it was 34.7 µM; in the assay on MALME-3M melanoma, 64.6 µM; in the assay with A549 NSCLC, more than 100 µM; in the assay on ACHN renal, more than 100 µM; in the assay on LOX IMVI melanoma, more than 100 µM. The TGI was 96.3 µM in the assay on HOP-92 NSCLC, more than 100 µM in the assay with COLO 205 colon and more than 100 µM in the assay with SR leukemia.
